In one series the test system is K562. In words: Antitumor activity against human K562 cells xenografted in NOD-SCID mouse assessed as tumor growth inhibition at 25 mg/kg, ip administered as 5 days on and 2 days off schedule for 21 days. It counts as functional. The settings on record: K562, 120 h, time 5 day, read-out: TGI. In general terms: Xenograft models place foreign cells or tissue in a host animal.

In series [1] the target is T1, von Hippel-Lindau disease tumor suppressor/Son of sevenless homolog 1 (Homo sapiens, UniProt Q07889+P40337). Briefly: Protac activity at VHL/SOS1 in human MIA PaCa-2 cells assessed as SOS1 degradation at 1 uM incubated for 96 hrs by Western blotting analysis. The class given is cell-based. Background: In western blotting, separated proteins are transferred to a membrane and probed.
Target sequence in this assay (P40337 whole entry, looked up, one chain of several): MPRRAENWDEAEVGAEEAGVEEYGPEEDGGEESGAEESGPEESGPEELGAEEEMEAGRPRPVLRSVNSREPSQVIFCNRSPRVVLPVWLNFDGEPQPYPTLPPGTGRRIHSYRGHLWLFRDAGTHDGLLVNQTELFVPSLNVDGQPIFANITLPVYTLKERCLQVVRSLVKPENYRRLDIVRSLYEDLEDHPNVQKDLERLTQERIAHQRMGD

In series [2] the target is T1, von Hippel-Lindau disease tumor suppressor/Son of sevenless homolog 1. In words: Protac activity at VHL/SOS1 in human MIA PaCa-2 cells assessed as SOS1 degradation at 1 uM preincubated with VHL ligand V1 for 2 hrs followed by compound addition and measured after 3 hrs by Western blotting analysis. It counts as cell-based.
Target sequence in this assay (P40337 whole entry, looked up, one chain of several): as above
Series [3] shares this target. In words: Protac activity at VHL/SOS1 in human MIA PaCa-2 cells assessed as SOS1 degradation at 1 uM preincubated with BI3406 for 2 hrs followed by compound addition and measured after 3 hrs by Western blotting analysis. It counts as cell-based.
Target sequence in this assay (P40337 whole entry, looked up, one chain of several): as above
Series [4] shares this target. Briefly: Protac activity at VHL/SOS1 in human MIA PaCa-2 cells assessed as SOS1 degradation incubated for 24 hrs by Western blotting analysis. It counts as cell-based.
Series [5] is described as follows: Cmax in ICR mouse at 10 mg/kg, po measured upto 24 hrs by LC-MS/MS analysis. It counts as ADME, organism-based. The settings on record: in vivo.
Series [6] deals with T1, von Hippel-Lindau disease tumor suppressor/Son of sevenless homolog 1. In words: Protac activity at VHL/SOS1 in human K562 cells assessed as SOS1 degradation at 10 uM by Western blotting analysis relative to control. It counts as cell-based.
Target sequence in this assay (P40337 whole entry, looked up, one chain of several): as above
Series [7] has the same target. In words: Protac activity at VHL/SOS1 in human PANC-1 cells assessed as SOS1 degradation at 1 uM incubated for 96 hrs by Western blotting analysis. It counts as cell-based.
Target sequence in this assay (P40337 whole entry, looked up, one chain of several): as above
Series [8] shares this target. In words: Protac activity at VHL/SOS1 in human PANC-1 cells assessed as maximum SOS1 degradation at 0.003 to 10 uM incubated for 24 hrs by Western blotting analysis. It counts as cell-based. Conditions: dose 0.003-10 µM.
Target sequence in this assay (P40337 whole entry, looked up, one chain of several): as above
The subject of a further series is SW837. Briefly: Antiproliferative activity against human SW837 cells incubated for 6 days by CCK8 assay. Conditions: SW837, 144 h. It counts as functional, cell-based. (In general: Formazan colour is commonly taken as a measure of viable cells.)
Series [9] has as its target T2, Son of sevenless homolog 1 (Homo sapiens) (UniProt Q07889).
T2 sequence (whole entry): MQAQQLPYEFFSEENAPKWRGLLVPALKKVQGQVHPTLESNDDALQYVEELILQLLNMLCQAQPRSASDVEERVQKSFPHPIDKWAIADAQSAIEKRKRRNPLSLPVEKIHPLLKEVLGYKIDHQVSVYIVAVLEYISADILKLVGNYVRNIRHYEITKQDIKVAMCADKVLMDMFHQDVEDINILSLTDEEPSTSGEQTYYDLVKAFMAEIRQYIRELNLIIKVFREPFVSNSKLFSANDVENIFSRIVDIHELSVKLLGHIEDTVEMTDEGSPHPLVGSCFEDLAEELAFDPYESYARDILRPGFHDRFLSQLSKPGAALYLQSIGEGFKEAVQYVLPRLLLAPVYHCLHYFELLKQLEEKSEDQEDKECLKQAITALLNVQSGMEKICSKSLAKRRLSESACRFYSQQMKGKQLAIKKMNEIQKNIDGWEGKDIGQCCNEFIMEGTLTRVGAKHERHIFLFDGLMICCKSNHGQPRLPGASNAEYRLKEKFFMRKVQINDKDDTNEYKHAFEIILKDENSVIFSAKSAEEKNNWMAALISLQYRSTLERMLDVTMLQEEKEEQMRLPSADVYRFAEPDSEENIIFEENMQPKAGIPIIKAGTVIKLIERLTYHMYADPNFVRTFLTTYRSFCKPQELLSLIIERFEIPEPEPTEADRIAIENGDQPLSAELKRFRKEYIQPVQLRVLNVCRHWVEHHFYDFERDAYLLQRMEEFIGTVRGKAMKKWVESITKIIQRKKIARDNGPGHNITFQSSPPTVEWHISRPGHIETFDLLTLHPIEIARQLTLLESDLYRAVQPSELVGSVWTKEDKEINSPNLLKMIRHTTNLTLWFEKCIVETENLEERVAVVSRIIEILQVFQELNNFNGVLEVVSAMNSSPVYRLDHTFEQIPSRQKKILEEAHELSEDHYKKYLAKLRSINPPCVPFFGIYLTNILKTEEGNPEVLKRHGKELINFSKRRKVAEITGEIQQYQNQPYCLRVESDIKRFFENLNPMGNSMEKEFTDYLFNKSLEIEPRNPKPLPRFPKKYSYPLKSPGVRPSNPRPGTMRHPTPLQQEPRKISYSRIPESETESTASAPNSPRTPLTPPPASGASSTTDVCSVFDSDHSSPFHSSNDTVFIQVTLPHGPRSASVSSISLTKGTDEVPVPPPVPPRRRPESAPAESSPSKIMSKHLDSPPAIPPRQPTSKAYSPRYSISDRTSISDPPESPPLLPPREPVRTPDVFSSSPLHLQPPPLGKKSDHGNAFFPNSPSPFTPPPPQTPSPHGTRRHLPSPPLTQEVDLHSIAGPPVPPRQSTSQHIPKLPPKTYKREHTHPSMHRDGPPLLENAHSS
Briefly: Induction of SOS1 degradation in human MIA PaCa-2 cells at 1 uM after 24 hrs by MS analysis. It counts as cell-based.

The nature of series [10]: Toxicity in BALB/c mouse xenografted with human NCI-H358 cells assessed as body weight loss at 30 mg/kg, ip administered once daily for 28 days in presence of 10 mg/kg 4-((S)-4-acryloyl-2-methylpiperazin-1-yl)-6-fluoro-7-(2-fluoro-6-hydroxyphenyl)-1-(2-isopropyl-4-methylpyridin-3-yl)pyrido[2,3-d]pyrimidin-2(1H)-one. It counts as organism-based. The settings on record: in vivo, 672 h, time 28 day.

A short description of series [11]: AUC(0 to t) in ICR mouse at 10 mg/kg, po measured upto 24 hrs by LC-MS/MS analysis. The settings on record: in vivo. The class given is ADME, organism-based.
Series [12] has as its target T1, von Hippel-Lindau disease tumor suppressor/Son of sevenless homolog 1. In words: Protac activity at VHL/SOS1 in human K562 cells assessed as SOS1 degradation incubated for 24 hrs by Western blotting analysis. It counts as cell-based.
Another series has as its system Mus musculus. Briefly: In vivo induction of SOS1 degradation in human K562 cells xenografted in NOD-SCID mouse assessed as reduction in SOS1 level at 25 mg/kg, ip measured after 24 hrs by immunoblotting analysis. The class given is functional, organism-based.
In a further series the test system is NCI-H358. Briefly: Synergistic antiproliferative activity against human NCI-H358 cells assessed as combination index incubated for 5 days in presence of 4-((S)-4-acryloyl-2-methylpiperazin-1-yl)-6-fluoro-7-(2-fluoro-6-hydroxyphenyl)-1-(2-isopropyl-4-methylpyridin-3-yl)pyrido[2,3-d]pyrimidin-2(1H)-one. It counts as functional. The settings on record: time 5 day.

Series [13] addresses T1, von Hippel-Lindau disease tumor suppressor/Son of sevenless homolog 1. Briefly: Protac activity at VHL/SOS1 in human K562 cells assessed as SOS1 degradation at 1 uM preincubated with VHL ligand V1 for 2 hrs followed by compound addition and measured after 2 hrs by Western blotting analysis. It counts as cell-based.
Series [14] has the same target. Briefly: Protac activity at VHL/SOS1 in human PANC-1 cells assessed as SOS1 degradation at 10 uM by Western blotting analysis relative to control. It counts as cell-based.

Calls of active or inactive are those of the source. The rule behind the calls is not given here.

Regarding `COc1cc2nc(C)nc(N[C@H](C)c3cc(N)cc(C(F)(F)F)c3)c2cc1OCCCCC(=O)N[C@H](C(=O)N1C[C@H](O)C[C@H]1C(=O)NCc1ccc(-c2scnc2C)cc1)C(C)(C)C`, the inhibition in vivo at 25 mg/kg in the series with K562 came to 72.3%. Besides, the result (in series [1]; in [7]; in [9]; in the series with Mus musculus) was Active. Further, the outcome in [2], in [3] and in series [13] was inactive. Moreover, the Activity entry in series [4] was “Dose-Dependent Effect”; in series [6] it was 93.3%; in series [10], “Non-Toxic”; in [12], “Dose-Dependent Effect”; in [14] it was 93.9%. The DC50 (as a rule, the concentration giving 50% degradation) in series [4] amounted to 61 nM; in series [12], 130 nM. Besides, the Cmax (commonly the maximum level reached in the sampled fluid or tissue) in series [5] amounted to 1650 ng/mL. Also, the Emax (as a rule, the greatest response seen or fitted, relative to the assay's reference) in [8] was greater than 90%. It took 1040 nM to reach half-maximal inhibition with SW837 (IC50). The AUC(0-t) (as a rule, exposure summed from dosing to a finite time, without extrapolation to infinity) at 24 h in series [11] came to 4260 ng·h/mL. Further, in the series on NCI-H358, the CI was less than 1.

The values above are taken from ChEMBL document CHEMBL5528047, “A Potent SOS1 PROTAC Degrader with Synergistic Efficacy in Combination with KRASG12C Inhibitor” (J Med Chem, 2024).
